{"source": "the SangsterLogP compilation"}
{"smiles": "COc1ncnc2c1ncn2[C@@H]1O[C@H](COC(=O)C(C)C)[C@@H](OC(=O)C(C)C)[C@@H]1O", "logP": 3.63}
{"smiles": "CCCC(=O)OC1C(CO)OC(n2cnc3c(OC)ncnc32)C1OC(=O)CCC", "note": "(stereo not given)", "logP": 2.9}
{"smiles": "COc1ncnc2c1ncn2[C@@H]1O[C@H](COC(=O)c2ccccc2)[C@@H](O)[C@@H]1OC(=O)c1ccccc1", "logP": 3.39}
{"smiles": "COc1ccc(C(=O)OC[C@H]2O[C@@H](n3cnc4c(OC)ncnc43)[C@@H](OC(=O)c3ccc(OC)cc3)[C@@H]2O)cc1", "logP": 3.65}
{"smiles": "COc1ncnc2c1ncn2[C@@H]1O[C@H](COC(=O)Cc2ccccc2)[C@@H](OC(=O)Cc2ccccc2)[C@@H]1O", "logP": 4.37}
{"smiles": "COc1ncnc2c1ncn2[C@@H]1O[C@H](COC(C)=O)[C@@H](OC(C)=O)[C@@H]1OC(C)=O", "logP": 1.93}
{"smiles": "COc1ncnc2c1ncn2[C@@H]1O[C@H](COC(C)=O)[C@@H](O)[C@@H]1OC(C)=O", "logP": 1.4}
{"smiles": "CCC(=O)OC[C@H]1O[C@@H](n2cnc3c(OC)ncnc32)[C@@H](O)[C@@H]1OC(=O)CC", "logP": 2.7}
{"smiles": "CCCCC(=O)O[C@H]1[C@H](OC(=O)CCCC)[C@@H](CO)O[C@H]1n1cnc2c(OC)ncnc21", "logP": 3.83}
{"smiles": "COc1ncnc2c1ncn2[C@@H]1O[C@H](CO)[C@@H](OC(=O)COc2ccccc2)[C@@H]1OC(=O)COc1ccccc1", "logP": 3.4}
{"smiles": "COc1ncnc2c1ncn2[C@@H]1O[C@H](CO)[C@@H](OC(C)=O)[C@@H]1OC(C)=O", "logP": 1.33}
{"smiles": "COc1ncnc2c1ncn2[C@@H]1O[C@H](CO)[C@@H](OC(=O)C(C)C)[C@@H]1OC(=O)C(C)C", "logP": 2.82}
{"smiles": "COc1ncnc2c1ncn2[C@@H]1O[C@H](COC(=O)COc2ccccc2)[C@@H](OC(=O)COc2ccccc2)[C@@H]1O", "logP": 4.06}
{"smiles": "COc1ncnc2c1ncn2[C@@H]1O[C@H](COC(=O)C(C)C)[C@@H](O)[C@@H]1OC(=O)C(C)C", "logP": 2.7}
{"smiles": "COc1ncnc2c1ncn2[C@@H]1O[C@H](CO)[C@@H](O)[C@@H]1O", "logP": 0.5}
{"smiles": "CCCCC(=O)OC[C@H]1O[C@@H](n2cnc3c(OC)ncnc32)[C@@H](OC(=O)CCCC)[C@@H]1O", "logP": 3.58}
{"smiles": "CCC(=O)OC[C@H]1O[C@@H](n2cnc3c(OC)ncnc32)[C@@H](OC(=O)CC)[C@@H]1OC(=O)CC", "logP": 2.75}
{"smiles": "CCC(=O)O[C@H]1[C@H](OC(=O)CC)[C@@H](CO)O[C@H]1n1cnc2c(OC)ncnc21", "logP": 2.07}
{"smiles": "COc1ncnc2c1ncn2[C@@H]1O[C@H](COC(=O)C(C)(C)C)[C@@H](O)[C@@H]1OC(=O)C(C)(C)C", "logP": 3.4}
{"smiles": "COc1ncnc2c1ncn2[C@@H]1O[C@H](CO)[C@@H](OC(=O)Cc2ccccc2)[C@@H]1OC(=O)Cc1ccccc1", "logP": 3.48}
{"smiles": "COc1ncnc2c1ncn2[C@@H]1O[C@H](CO)[C@@H](OC(=O)C(C)(C)C)[C@@H]1OC(=O)C(C)(C)C", "logP": 3.61}
{"smiles": "CCCC(=O)OC[C@H]1O[C@@H](n2cnc3c(OC)ncnc32)[C@@H](O)[C@@H]1OC(=O)CCC", "logP": 3.67}
{"smiles": "COc1ncnc2c1ncn2[C@@H]1O[C@H](CO)[C@@H](OC(=O)c2ccccc2)[C@@H]1OC(=O)c1ccccc1", "logP": 3.71}
{"smiles": "COc1ncnc2c1ncn2[C@@H]1O[C@H](COS(C)(=O)=O)[C@@H](OS(C)(=O)=O)[C@@H]1OS(C)(=O)=O", "logP": 0.58}
{"smiles": "COc1ncnc2c1ncn2[C@@H]1O[C@H](COC(C)=O)[C@@H](OC(C)=O)[C@@H]1O", "logP": 1.75}
